Data published in ChEMBL document CHEMBL1201862, “PubChem BioAssay data set” (2004).
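Dose response: 5 concentrations. Exposure: 48 h. Format: 96-well plates. Endpoint: linear interpolation; highest concentration if not reached. Abbreviation: GI50, concentration required for 50% inhibition of growth.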 Calls of active or inactive are those of the source. Cut-off read from the data, not from the text of the source: active = GI50 up to about 1.1 µM and inactive = higher.

Experiments:
Assay in all cases: NCI-60 cell line screen, 48 h
[1] = system: 786-0
[2] = system: A498
[3] = system: ACHN
[4] = system: CCRF-CEM
[5] = system: DU-145
[6] = system: HCT-15
[7] = system: HOP-92
[8] = system: Hs-578T
[9] = system: K562
[10] = system: MCF7
[11] = system: Malme-3M
[12] = system: NCI-H23
[13] = system: OVCAR-5
[14] = system: RXF 393
[15] = system: SF-268
[16] = system: SNB-19
[17] = system: SNB-75
[18] = system: COLO 205
[19] = system: NCI/ADR-RES

Row | Structure (SMILES) | GI50 [1] | GI50 [2] | GI50 [3] | GI50 [4] | GI50 [5] | GI50 [6] [µM] | GI50 [7] | GI50 [8] | GI50 [9] | GI50 [10] | GI50 [11] | GI50 [12] | GI50 [13] | GI50 [14] | GI50 [15] | GI50 [16] | GI50 [17] | GI50 [18] | GI50 [19]
1 | CC1(C)CNCC(C)(OCc2ccccc2)C(=O)NC(C)(C)CNCC(C)(OCc2ccccc2)C(=O)N1 (stereo not given) | > 10 µM (inactive) | > 10 µM (inactive) | > 10 µM (inactive) | > 10 µM (inactive) | > 10 µM (inactive) | > 10 | 0.385 µM (active) | 5.09 µM (inactive) | > 10 µM (inactive) | > 10 µM (inactive) | > 10 µM (inactive) | > 10 µM (inactive) | > 10 µM (inactive) | 3.78 µM (inactive) | > 10 µM (inactive) | > 10 µM (inactive) | 6.27 µM (inactive) | – | –
2 | CC1=C2CC3=C(C)C(=O)O[C@H]3C[C@@H](C)[C@@H]2CC1 [AMERICANOLIDE D] | > 100 µM (inactive) | > 100 µM (inactive) | > 100 µM (inactive) | 76.2 µM (inactive) | – | > 100 | > 100 µM (inactive) | > 100 µM (inactive) | 37.8 µM (inactive) | – | > 100 µM (inactive) | > 100 µM (inactive) | > 100 µM (inactive) | – | > 100 µM (inactive) | > 100 µM (inactive) | 97.5 µM (inactive) | > 100 µM (inactive) | > 100 µM (inactive)
3 | CCN(CC)C(=O)N1CN(c2ccccc2)C2(CCN(CCCSc3ccc(F)cc3)CC2)C1=O | 12.8 µM (inactive) | – | 3.01 µM (inactive) | 4.2 µM (inactive) | 5.14 µM (inactive) | 11 | – | 2.79 µM (inactive) | 8.32 µM (inactive) | 4.19 µM (inactive) | 15.9 µM (inactive) | 7.83 µM (inactive) | 14.3 µM (inactive) | 16.2 µM (inactive) | 11.1 µM (inactive) | 9.79 µM (inactive) | 20.6 µM (inactive) | 1.92 µM (inactive) | 21.2 µM (inactive)
4 | COc1cn2c(cc1=O)COc1ccc(-c3ccccc3)cc1-2 | > 88.1 µM (inactive) | – | 48.4 µM (inactive) | – | 52.4 µM (inactive) | 54.5 | 46.9 µM (inactive) | – | 89.3 µM (inactive) | 21.1 µM (inactive) | 42.6 µM (inactive) | 45.5 µM (inactive) | > 96.2 µM (inactive) | > 82.6 µM (inactive) | 60.8 µM (inactive) | 40 µM (inactive) | 35.8 µM (inactive) | 56 µM (inactive) | 49.9 µM (inactive)
5 | O=S(=O)(Nc1nccs1)c1ccc(Nc2nc(-c3cccs3)nc3ccc(I)cc23)cc1 | 15.5 µM (inactive) | – | 29.6 µM (inactive) | 3.48 µM (inactive) | 9.48 µM (inactive) | 32.1 | 9.35 µM (inactive) | – | 14.8 µM (inactive) | 8.28 µM (inactive) | 14.3 µM (inactive) | 37.4 µM (inactive) | 40.2 µM (inactive) | 36.5 µM (inactive) | 12.6 µM (inactive) | 14.5 µM (inactive) | 36.4 µM (inactive) | 6.34 µM (inactive) | > 75.5 µM (inactive)
6 | CO[C@@](c1ccccc1)(c1nc(C#N)c(N)o1)C(F)(F)F | > 100 µM (inactive) | > 100 µM (inactive) | > 100 µM (inactive) | 26.5 µM (inactive) | > 100 µM (inactive) | 85.9 | 44.7 µM (inactive) | – | 33.7 µM (inactive) | > 100 µM (inactive) | > 100 µM (inactive) | > 100 µM (inactive) | – | > 100 µM (inactive) | – | > 100 µM (inactive) | 20.5 µM (inactive) | > 100 µM (inactive) | > 100 µM (inactive)
7 | COc1cccc(/C=C2\CCCCCC2=O)c1 | > 100 µM (inactive) | > 100 µM (inactive) | > 100 µM (inactive) | – | > 100 µM (inactive) | > 100 | > 100 µM (inactive) | > 100 µM (inactive) | 72.3 µM (inactive) | – | > 100 µM (inactive) | > 100 µM (inactive) | > 100 µM (inactive) | – | > 100 µM (inactive) | 19.7 µM (inactive) | 62.5 µM (inactive) | > 100 µM (inactive) | –
8 | CC(NC(=O)OC(C)(C)C)C(=O)NC(Cc1ccccc1)C(=O)NCC(=O)ON=C1CCCC1 (stereo not given) | > 100 µM (inactive) | > 100 µM (inactive) | > 100 µM (inactive) | 90.2 µM (inactive) | > 100 µM (inactive) | > 100 | > 100 µM (inactive) | – | 43.6 µM (inactive) | 63.1 µM (inactive) | > 100 µM (inactive) | > 100 µM (inactive) | > 100 µM (inactive) | > 100 µM (inactive) | > 100 µM (inactive) | > 100 µM (inactive) | 93.1 µM (inactive) | > 100 µM (inactive) | > 100 µM (inactive)
9 | CCOC(=O)C(=[N+]=[N-])C(=O)CN1C(=O)c2ccccc2C1=O | > 100 µM (inactive) | > 100 µM (inactive) | > 100 µM (inactive) | – | > 100 µM (inactive) | > 100 | > 100 µM (inactive) | > 100 µM (inactive) | > 100 µM (inactive) | > 100 µM (inactive) | – | > 100 µM (inactive) | > 100 µM (inactive) | > 100 µM (inactive) | > 100 µM (inactive) | > 100 µM (inactive) | > 100 µM (inactive) | > 100 µM (inactive) | –
10 | C=C1C(=O)OC2C=C(CCC(C)=O)C(C)C(OC(C)=O)CC12 (stereo not given) | 9.68 µM (inactive) | 16.1 µM (inactive) | 6.84 µM (inactive) | 2.6 µM (inactive) | – | 6.11 | 3.99 µM (inactive) | – | 3.86 µM (inactive) | – | 11.2 µM (inactive) | – | 16.1 µM (inactive) | 2.41 µM (inactive) | 16.1 µM (inactive) | 17.6 µM (inactive) | 10.8 µM (inactive) | – | –
11 | O=C1C(Cl)=C(NCCF)C(=O)c2ncccc21 | 1.82 µM (inactive) | 4.12 µM (inactive) | 2.19 µM (inactive) | 0.235 µM (active) | 1.6 µM (inactive) | 2.08 | – | 1.83 µM (inactive) | 0.321 µM (active) | 1.72 µM (inactive) | 1.57 µM (inactive) | 1.6 µM (inactive) | 1.88 µM (inactive) | 1.84 µM (inactive) | 2.03 µM (inactive) | 1.64 µM (inactive) | 1.29 µM (inactive) | – | –
12 | CCCCCCCCCCOC(=O)NCCC | 28.1 µM (inactive) | 31.7 µM (inactive) | 28.8 µM (inactive) | 18.5 µM (inactive) | – | 21 | 11.6 µM (inactive) | – | 29.9 µM (inactive) | – | 21.4 µM (inactive) | 33.1 µM (inactive) | 24.4 µM (inactive) | 15.9 µM (inactive) | 29.1 µM (inactive) | 34.4 µM (inactive) | 49.2 µM (inactive) | 40.5 µM (inactive) | –
13 | COc1c(OC)c(OC)c(-c2cc(=O)c3c(OC)c(OC)c(OC)c(OC)c3o2)c(OC)c1OC | 21.5 µM (inactive) | 31.3 µM (inactive) | 32.7 µM (inactive) | 34 µM (inactive) | 62.5 µM (inactive) | 26.7 | 21.3 µM (inactive) | 52.5 µM (inactive) | 41.1 µM (inactive) | – | 47 µM (inactive) | 22.2 µM (inactive) | > 100 µM (inactive) | 27.3 µM (inactive) | 69.5 µM (inactive) | 51.9 µM (inactive) | 57.5 µM (inactive) | 37.4 µM (inactive) | 23.9 µM (inactive)
14 | Cc1[nH]c2ccccc2c1C(=O)/C=C/c1ccccc1O | > 100 µM (inactive) | > 100 µM (inactive) | > 100 µM (inactive) | > 100 µM (inactive) | – | – | – | – | > 100 µM (inactive) | – | > 100 µM (inactive) | > 100 µM (inactive) | > 100 µM (inactive) | > 100 µM (inactive) | > 100 µM (inactive) | > 100 µM (inactive) | > 100 µM (inactive) | > 100 µM (inactive) | –
15 | CC(C)(C)OC(=O)C(C#N)C(=O)c1ccc(C(=O)O)[nH]1 (stereo not given) | 51.9 µM (inactive) | 20.5 µM (inactive) | 32.2 µM (inactive) | 15 µM (inactive) | 48.2 µM (inactive) | 23.2 | 12 µM (inactive) | – | 22.6 µM (inactive) | – | 35.2 µM (inactive) | 36.3 µM (inactive) | 48.4 µM (inactive) | – | 47.4 µM (inactive) | 41.5 µM (inactive) | 50.5 µM (inactive) | 40.2 µM (inactive) | 12.7 µM (inactive)
16 | CS(=O)(=O)C[S+]([O-])C[S+]([O-])C[S+]([O-])CC(NC(=O)CCC(N)C(=O)O)C(=O)O (stereo not given) | > 100 µM (inactive) | – | > 100 µM (inactive) | > 100 µM (inactive) | > 100 µM (inactive) | > 100 | > 100 µM (inactive) | 51.8 µM (inactive) | > 100 µM (inactive) | > 100 µM (inactive) | – | > 100 µM (inactive) | > 100 µM (inactive) | – | > 100 µM (inactive) | > 100 µM (inactive) | > 100 µM (inactive) | > 100 µM (inactive) | > 100 µM (inactive)
17 | Cc1cc(C)nc(NS(=O)(=O)c2ccc(NC(=O)c3cccc4cc5ccccc5nc34)cc2)n1 | 39.5 µM (inactive) | 21.3 µM (inactive) | 44.3 µM (inactive) | 21.4 µM (inactive) | – | 21 | – | – | 24.5 µM (inactive) | – | 23.4 µM (inactive) | 25.9 µM (inactive) | 62.2 µM (inactive) | 23.1 µM (inactive) | 16.2 µM (inactive) | 25.7 µM (inactive) | 51.4 µM (inactive) | 39.4 µM (inactive) | –
18 | N#CC(c1cc(Cl)ncn1)c1nc2ccccc2s1 (stereo not given) | 3.77 µM (inactive) | 21.8 µM (inactive) | 18.3 µM (inactive) | – | 5.56 µM (inactive) | 3.74 | 3.57 µM (inactive) | – | 4.93 µM (inactive) | – | 10.8 µM (inactive) | 5.04 µM (inactive) | 18.1 µM (inactive) | 16.1 µM (inactive) | 5.25 µM (inactive) | 5.93 µM (inactive) | 13.6 µM (inactive) | 14.8 µM (inactive) | 3.29 µM (inactive)
